Results as given in patent US5710130A, “Antithrombotic agents” (Eli Lilly and Company, priority 1995, dated 1998).
Counter-ions that a name gives are not always drawn.

Assays:
[1] = Index of bioavailability (% Relative Activity) from plasma TT time course, oral vs i.v.; type: in vivo; settings: p.o. dose per legend (20, 60 or 50 mg/kg)
Experimental: Parke Davis) at 37° C. […] Assays are done in duplicate and averaged. […] Each sample population represented alternating sequential time points.

human plasma [2] = assay: Human plasma anticoagulation, thrombin time (TT); type: biochemical; settings: concentration required to double thrombin time, linear extrapolation
Experimental: (§1) Dog plasma and rat plasma is obtained from conscious mixed-breed hounds (either sex, Hazelton-LRE, Kalamazoo, Mich., U.S.A.) or from anesthetized male Sprague-Dawley rats (Harlan Sprague-Dawley, Inc., Indianapolis, Ind., U.S.A.) by venipuncture into 3.8 percent citrate. Fibrinogen is prepared from in-date ACD human blood as the fraction I-2 according to previous procedures and specifications. […] Human fibrinogen is also purchased as 98 percent pure/plasmin free from American Diagnostica, Greenwich, Conn. Coagulation reagents ACTIN, Thromboplastin, and Human plasma are from Baxter Healthcare Corp., Dade Division, Miami, Fla. Bovine thrombin from Parke-Davis ([…], Mich.) is used for coagulation assays in plasma.
(§2) Coagulation assay procedures are as previously described. […] A CoAScreener coagulation instrument (American LABor, Inc.) is used for all coagulation assay measurements. The prothrombin time (PT) is measured by adding 0.05 mL saline and 0.05 mL Thromboplastin-C reagent to 0.05 mL test plasma. The activated partial thromboplastin time (APTT) is measured by incubation of 0.05 mL test plasma with 0.05 mL Actin reagent for 120 seconds followed by 0.05 mL CaCl2 (0.02M). The thrombin time (TT) is measured by adding 0.05 mL saline and 0.05 mL thrombin (10 NIH units/mL) to 0.05 mL test plasma. The compounds of Formula I are added to human or animal plasma over a wide range of concentrations to determine prolongation effects on the APTT, PT, and TT assays. Linear extrapolations are performed to estimate the concentrations required to double the clotting time for each assay.

human plasma [3] = assay: Human plasma anticoagulation, prothrombin time (PT); type: biochemical; settings: concentration required to double PT, linear extrapolation
Experimental: as §1, §2

human plasma [4] = assay: Human plasma anticoagulation, activated partial thromboplastin time (APTT); type: biochemical; settings: concentration required to double APTT, linear extrapolation
Experimental: as §1, §2

Human Thrombin = Human Thrombin (Homo sapiens, UniProt P00734); assay: Inhibition of thrombin amidase activity (Kass), chromogenic substrate; type: biochemical; settings: mean Kass over a range of concentrations; substrate N-benzoyl-Phe-Val-Arg-p-nitroanilide

Row | % oral/i.v. activity (Rat), screening not completed [1] | Kass Human Thrombin (Human Thrombin) | Compound | Human Plasma Anticoagulation 2x Clotting time TT (human plasma [2]) | Human Plasma Anticoagulation 2x Clotting time PT (human plasma [3]) | Human Plasma Anticoagulation 2x Clotting time APTT (human plasma [4])
1 | NC^2 | – | N=C(N)c1ccc(CNC(=O)[C@@H]2C[C@@H]3CCCC[C@@H]3N2C(=O)[C@@H](CC2CCCCC2)NCC(=O)O)cc1 (relative stereo) [Example 49, (S-cis)-N-[[4-(aminoiminomethyl)phenyl]methyl]-1-[N-(carboxymethyl)-D-cyclohexylalanyl-1H-indole-2-carboxamide hydrochloride] | 5 ng/mL | – | –
2 | – | 0.97 × 10^6 (L/mole) | Cl.N=C(N)c1cccc(CNC(=O)[C@@H]2CCCN2C(=O)[C@H](N)Cc2ccccc2)c1 [Example 16, D-Phe-Pro-m-NHCH2 C6 H4 C(NH)NH2.0.75HCl] | 650 ng/mL | 8,500 ng/mL | 8,600 ng/mL
3 | – | 0.29 × 10^6 (L/mole) | CCS(=O)(=O)N[C@H](Cc1ccccc1)C(=O)N1CCC[C@H]1C(=O)NCCc1cccc(C(=N)N)c1.Cl [Example 27, EtSO2 -D-Phe-Pro-m-NHCH2 CH2 -C6 H4 C(=NH)NH2.HCl] | – | 27,000 ng/mL | –
4 | – | 0.95 × 10^6 (L/mole) | Cl.Cl.N=C(N)c1ccc(CCNC(=O)[C@@H]2CCCN2C(=O)[C@@H]2NCC[C@@H]3CCCC[C@@H]32)cc1 [Example 28, D-1-Piq-pro-p-NHCH2 CH2 -C6 H4 C(=NH)NH2.2HCl] | – | 8,300 ng/mL | 8,100 ng/mL
5 | – | 0.76 × 10^6 (L/mole) | Cl.Cl.N=C(N)c1cccc(CCNC(=O)[C@@H]2CCCN2C(=O)[C@@H]2NCC[C@@H]3CCCC[C@@H]32)c1 [Example 29, D-1-Piq-Pro-m-NHCH2 CH2 -C6 H4 C(=NH )NH2.2HCl] | – | 15,000 ng/mL | 9,800 ng/mL
6 | – | 39 × 10^6 (L/mole) | N=C(N)N1CCC(CCNC(=O)[C@@H]2CCCN2C(=O)[C@@H](CC2CCCCC2)NCC(=O)O)CC1 [Example 57, HO2 CCH2 -D-Cha-Pro-4-NHCH2 CH2 -1-amidinopiperidine.HCl] | 14 ng/mL | 340 ng/mL | 360 ng/mL
7 | – | 11 × 10^6 (L/mole) | N=C(N)C1CCC(CNC(=O)[C@@H]2CCCN2C(=O)[C@@H](CC2CCCCC2)NCC(=O)O)NC1 (stereo partly drawn) [Example 67, HO2 CCH2 -D-Cha-Pro-2-NHCH2 -5-amidinopiperidine.HCl] | 34 ng/mL | 1,300 ng/mL | 1,800 ng/mL
8 | – | 28 × 10^6 (L/mole) | Cl.Nc1cc(CNC(=O)[C@@H]2CCCN2C(=O)[C@@H](CC2CCCCC2)NCC(=O)O)ccn1 [Example 73, HO2 CCH2 -D-Cha-Pro-4-NHCH2 -2-aminopyridine.HCl] | 21 ng/mL | 330 ng/mL | 340 ng/mL
9 | – | 29 × 10^6 (L/mole) | Cl.Nc1ccc(CNC(=O)[C@@H]2CCCN2C(=O)[C@@H](CC2CCCCC2)NCC(=O)O)cn1 [Example 74, HO2 CCH2 -D-Cha-Pro-5-NHCH2 -2-aminopyridine.HCl] | 20 ng/mL | 350 ng/mL | 420 ng/mL
10 | – | 12 × 10^6 (L/mole) | Cl.Nc1cc(CCNC(=O)[C@@H]2CCCN2C(=O)[C@@H](CC2CCCCC2)NCC(=O)O)ccn1 [Example 76, HO2 CCH2 -D-Cha-Pro-4-NHCH2 CH2 -2-aminopyridine.HCl] | 29 ng/mL | 560 ng/mL | 490 ng/mL
11 | – | 11 × 10^6 (L/mole) | NCc1ccc(CNC(=O)[C@@H]2CCCN2C(=O)[C@@H](CC2CCCCC2)NCC(=O)O)cc1 [Example 78, HO2 CCH2 -D-Cha-Pro-4-NHCH2 C6 H4 CH2 NH2.HCl] | 46 ng/mL | 760 ng/mL | 430 ng/mL
12 | – | 5.0 × 10^6 (L/mole) | CCS(=O)(=O)N[C@H](CC1CCCCC1)C(=O)N1CCC[C@H]1C(=O)NCc1ccc(N)cc1F.Cl [Example 82, EtSO2 -D-Cha-Pro-4-NHCH2 -3-F-C6 H3 NH2.HCl] | 130 ng/mL | 3,000 ng/mL | 3,800 ng/mL
13 | – | 2.4 × 10^6 (L/mole) | CCS(=O)(=O)N[C@H](CC1CCCCC1)C(=O)N1CCC[C@H]1C(=O)NCc1ccnc(N)c1.Cl [Example 83, EtSO2 -D-Cha-Pro-4-NHCH2 -2-aminopyridine.HCl] | 91 ng/mL | 1,300 ng/mL | 1,000 ng/mL
14 | – | 2.9 × 10^6 (L/mole) | CCS(=O)(=O)N[C@H](CC1CCCCC1)C(=O)N1CCC[C@H]1C(=O)NCc1ccc(N)nc1.Cl [Example 84, EtSO2 -D-Cha-Pro-5-NHCH2 -2-aminopyridine.HCl] | 110 ng/mL | 1,900 ng/mL | 1,500 ng/mL
15 | – | 0.14 × 10^6 (L/mole) | Cl.N=C(N)c1ccc(CNC(=O)CN(CCc2ccccc2)C(=O)CNCC(=O)O)cc1 [Example 89, HOOCCH2 -Gly-N-C6 H5 CH2 CH2 Gly-p-NHCH2 C6 H4 C(NH)NH2.HCl] | 570 ng/mL | 37,000 ng/mL | 51,000 ng/mL
16 | – | 40 × 10^6 (L/mole) | HOOCCH2 -D-Phe-Pro(4-cis-isoamyl)-p-NHCH2 C6 H4 C(NH)NH2.HCl [Example 50] | 35 ng/mL | 420 ng/mL | 460 ng/mL

Row | Compound | % oral/i.v. activity (Rat), screening not completed [1] | Kass Human Thrombin (Human Thrombin) | Human Plasma Anticoagulation 2x Clotting time TT (human plasma [2]) | Human Plasma Anticoagulation 2x Clotting time PT (human plasma [3]) | Human Plasma Anticoagulation 2x Clotting time APTT (human plasma [4])
17 | N=C(N)c1ccc(CNC(=O)[C@@H]2CCCN2C(=O)[C@H]2C[C@H]3CCCC[C@H]3CN2)cc1 [Example 19, D-3-Piq-Pro-p-NHCH2 C6 H4 C(NH)NH2.3HCl] | – | 11 × 10^6 (L/mole) | 58 ng/mL | 540 ng/mL | 300 ng/mL
18 | Cl.O=C(O)CNC(CC1CCCCC1)C(=O)N1CCCC1C(=O)NCCC1CCNCC1 [Example 54, HO2 CCH2 -D-Cha-Pro-4-NHCH2 CH2 -piperidine.HCl] | – | 2.8 × 10^6 (L/mole) | 140 ng/mL | 2,200 ng/mL | 3,300 ng/mL
19 | Cl.O=C(O)CN[C@H](CC1CCCCC1)C(=O)N1CCC[C@H]1C(=O)NCCC1=CCNCC1 [Example 59, HO2 CCH2 -D-Cha-Pro-4-NHCH2 CH2 -3,4-dehydro-piperidine.HCl] | – | 1.10 × 10^6 (L/mole) | 420 ng/mL | 7,000 ng/mL | 5,500 ng/mL
20 | Nc1ccc(CNC(=O)[C@@H]2CCCN2C(=O)[C@@H](CC2CCCCC2)NCC(=O)O)cc1F [Example 77, HO2 CCH2 -D-Cha-pro-4-NHCH2-2-F-aniline.HCl] | – | 11 × 10^6 (L/mole) | 53 ng/mL | 890 ng/mL | 1,600 ng/mL
21 | CCS(=O)(=O)N[C@H](CC1CCCCC1)C(=O)N1CCC[C@H]1C(=O)NCc1ccc(C(=N)N)cc1 [Example 80, N-(ethylsulfonyl)-D-cyclohexylalanyl-N-[[4-(aminoiminomethyl)phenyl]methyl]-L-prolinamide hydrochloride] | – | 1,700 × 10^6 (L/mole) | 4 ng/mL | 130 ng/mL | 40 ng/mL
22 | N=C(N)c1ccc(CNC(=O)[C@@H]2CCCN2C(=O)[C@H](NCC(=O)O)C2CCCCC2)cc1 [Example 86, N-(carboxymethyl)-D-cyclohexylglycyl-N-[[4-(aminoiminomethyl)phenyl]methyl]-L-prolinamide hydrochloride] | – | 200 × 10^6 (L/mole) | 4 ng/mL | 180 ng/mL | 81 ng/mL
